Patent US10138230B2, “Autotaxin inhibitors” (CANCER RESEARCH TECHNOLOGY LIMITED, priority 2015, dated 2018)
pIC50: −log10 of the molar value. Counter-ions that a name gives are not always drawn.

What follows are molecules tested against human recombinant ATX (Homo sapiens (Human), UniProt Q13822) (assay: Autotaxin (ATX) activity Quanta Red assay). Conditions: 15 μM Rac-1-Palmitoyl-glycero-3-phosphocholine, 2 hours room temperature, determined in duplicate.
Assay type: biochemical
In short: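 Human recombinant ATX (0.8 μg/mL final) in 50 mM Tris-HCl pH 8.0, 5 mM CaCl2, 4% DMSO; 15 μM rac-1-palmitoyl-glycero-3-phosphocholine with HRP/choline oxidase-coupled Quanta Red, 2 h at room temperature.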

Compound	pIC50
O=C(Nc1nnc(CCC2CCCO2)s1)[C@H]1CC(=O)N(c2ccc(CN3CCOCC3)cc2)C1 (stereo partly drawn) [Compound F186, (3S)-1-[4-(morpholinomethyl)phenyl]-5-oxo-N-[5-(2-tetrahydrofuran-2-ylethyl)-1,3,4-thiadiazol-2-yl]pyrrolidine-3-carboxamide]	6.87
O=C(Nc1ncc(COC2CCCCC2)s1)C1CC(=O)N(c2ccc(CN3CCOCC3)cc2)C1 (stereo not drawn) [Compound F187, N-[5-(cyclohexoxymethyl)thiazol-2-yl]-1-[4-(morpholinomethyl)phenyl]-5-oxo-pyrrolidine-3-carboxamide]	6.79
O=C(Nc1nnc(CCC2CCOCC2)s1)[C@H]1CC(=O)N(c2ccc(CN3CCCCC3)cc2)C1 [Compound F190, (3S)-5-oxo-1-[4-(1-piperidylmethyl)phenyl]-N-[5-(2-tetrahydropyran-4-ylethyl)-1,3,4-thiadiazol-2-yl]pyrrolidine-3-carboxamide]	6.28
O=C(NC1CC(=O)N(c2ccc(CN3CCCCC3)cc2)C1)c1nnc(CCc2ccccc2)o1 (stereo not drawn) [Compound F194, N-[5-oxo-1-[4-(1-piperidylmethyl)phenyl]pyrrolidin-3-yl]-5-(2-phenylethyl)-1,3,4-oxadiazole-2-carboxamide]	6.19
O=C(NC1CC(=O)N(c2ccc(CN3CCCCC3)cc2)C1)c1nnc(CCc2ccco2)s1 (stereo not drawn) [Compound F195, 5-[2-(2-furyl)ethyl]-N-[5-oxo-1-[4-(1-piperidylmethyl)phenyl]pyrrolidin-3-yl]-1,3,4-thiadiazole-2-carboxamide]	6.12
O=C(NC1CC(=O)N(c2ccc(CN3CCCCC3)cc2)C1)c1ncc(CCc2ccccc2)s1 (stereo not drawn) [Compound F197, N-[5-oxo-1-[4-(1-piperidylmethyl)phenyl]pyrrolidin-3-yl]-5-(2-phenylethyl)thiazole-2-carboxamide]	6.33
O=C(NC1CC(=O)N(c2ccc(CN3CCCCC3)cc2)C1)c1cc(CCc2ccccc2)no1 (stereo not drawn) [Compound F198, N-[5-oxo-1-[4-(1-piperidylmethyl)phenyl]pyrrolidin-3-yl]-3-(2-phenylethyl)isoxazole-5-carboxamide]	6.00
NCc1ccc(N2CC(C(=O)Nc3nnc(CCc4ccc(Cl)cc4)s3)CC2=O)cc1 (stereo not drawn) [Compound F203, 1-(4-aminomethyl-phenyl)-5-oxo-pyrrolidine-3-carboxylic acid {5-[2-(4-chloro-phenyl)-ethyl]-[1,3,4]thiadiazol-2-yl}-amide]	6.41
O=C(NC1CC(=O)N(c2ccc(CN3CCCCC3)cc2)C1)c1ccc(CCc2ccccc2)nn1 (stereo not drawn) [Compound F205, N-[5-oxo-1-[4-(1-piperidylmethyl)phenyl]pyrrolidin-3-yl]-6-(2-phenylethyl)pyridazine-3-carboxamide]	5.15
COc1ccc(CCc2nnc(NC(=O)C3CC(=O)N(c4ccc(CN5CCOCC5)cc4)C3)o2)cc1 (stereo not drawn) [Compound F207, N-[5-[2-(4-methoxyphenyl)ethyl]-1,3,4-oxadiazol-2-yl]-1-[4-(morpholinomethyl)phenyl]-5-oxo-pyrrolidine-3-carboxamide]	5.61
CCN(C)Cc1ccc(N2CC(C(=O)Nc3nnc(CCc4ccc(Cl)cc4)s3)CC2=O)cc1 (stereo not drawn) [Compound F211, 1-{4-[(Ethyl-methyl-amino)-methyl]-phenyl}-5-oxo-pyrrolidine-3-carboxylic acid {5-[2-(4-chloro-phenyl)-ethyl]-[1,3,4]thiadiazol-2-yl}-amide]	8.05
O=C(Nc1nnc(CCc2ccc(Cl)cc2)s1)[C@H]1CC(=O)N(c2ccc(CN3CCC4(COC4)C3)cc2)C1 [Compound F212, (3S)-N-[5-[2-(4-chlorophenyl)ethyl]-1,3,4-thiadiazol-2-yl]-1-[4-(2-oxa-7-azaspiro[3.4]octan-7-ylmethyl)phenyl]-5-oxo-pyrrolidine-3-carboxamide]	9.00
O=C(Nc1nnc(CCc2ccc(Cl)cc2)s1)[C@H]1CC(=O)N(c2ccc(CN3CC4(COC4)C3)cc2)C1 [Compound F213, (3S)-N-[5-[2-(4-chlorophenyl)ethyl]-1,3,4-thiadiazol-2-yl]-1-[4-(2-oxa-6-azaspiro[3.3]heptan-6-ylmethyl)phenyl]-5-oxo-pyrrolidine-3-carboxamide]	9.00
CS(=O)(=O)NCc1ccc(N2C[C@H](NC(=O)c3nnc(CCc4ccc(Cl)cc4)s3)CC2=O)cc1 [Compound F214, 5-[2-(4-chlorophenyl)ethyl]-N-[(3R)-1-[4-(methanesulfonamido-methyl)phenyl]-5-oxo-pyrrolidin-3-yl]-1,3,4-thiadiazole-2-carboxamide]	6.87

Other lines, results leading:

pIC50	Compound
7.35	CN1CCC(C(=O)NCc2ccc(N3CC(C(=O)Nc4nnc(CCc5ccc(Cl)cc5)s4)CC3=O)cc2)CC1 (stereo not drawn) [Compound F184, 1-Methyl-piperidine-4-carboxylic acid 4-(4-{5-[2-(4-chloro-phenyl)-ethyl]-[1,3,4]thiadiazol-2-ylcarbamoyl}-2-oxo-pyrrolidin-1-yl)-benzylamide]
6.31	O=C(Nc1nnc(CCC2CCOCC2)s1)C1CC(=O)N(c2ccc(CN3CCCCC3)cc2)C1 (stereo not drawn) [Compound F189, 5-oxo-1-[4-(1-piperidylmethyl)phenyl]-N-[5-(2-tetrahydropyran-4-ylethyl)-1,3,4-thiadiazol-2-yl]pyrrolidine-3-carboxamide]
6.21	O=C(Nc1nnc(CCC2CCCO2)s1)[C@H]1CC(=O)N(c2ccc(CN3CCCCC3)cc2)C1 (stereo partly drawn) [Compound F191, (3S)-5-oxo-1-[4-(1-piperidylmethyl)phenyl]-N-[5-(2-tetrahydrofuran-2-ylethyl)-1,3,4-thiadiazol-2-yl]pyrrolidine-3-carboxamide]
6.11	Cn1nc(NC(=O)C2CC(=O)N(c3ccc(CN4CCOCC4)cc3)C2)cc1CCc1ccc(Cl)cc1 (stereo not drawn) [Compound F192, N-[5-[2-(4-chlorophenyl)ethyl]-1-methyl-pyrazol-3-yl]-1-[4-(morpholinomethyl)phenyl]-5-oxo-pyrrolidine-3-carboxamide]
6.99	O=C(NC1CC(=O)N(c2ccc(CN3CCCCC3)cc2)C1)c1nnc(NCc2ccc(Cl)cc2)s1 (stereo not drawn) [Compound F196, 5-[(4-chlorophenyl)methyl-amino]-N-[5-oxo-1-[4-(1-piperidylmethyl)phenyl]pyrrolidin-3-yl]-1,3,4-thiadiazole-2-carboxamide]
6.53	COc1ccc(CCc2cc(NC(=O)C3CC(=O)N(c4ccc(CN5CCOCC5)cc4)C3)on2)cc1 (stereo not drawn) [Compound F199, N-[3-[2-(4-methoxyphenyl)ethyl]isoxazol-5-yl]-1-[4-(morpholinomethyl)phenyl]-5-oxo-pyrrolidine-3-carboxamide]
6.12	O=C(Nc1cc(CCc2ccccc2)no1)C1CC(=O)N(c2ccc(CN3CCOCC3)cc2)C1 (stereo not drawn) [Compound F200, 1-[4-(morpholinomethyl)phenyl]-5-oxo-N-[3-(2-phenylethyl)isoxazol-5-yl]pyrrolidine-3-carboxamide]
5.97	O=C(Nc1cnc(CCc2ccccc2)s1)C1CC(=O)N(c2ccc(CN3CCOCC3)cc2)C1 (stereo not drawn) [Compound F201, 1-[4-(morpholinomethyl)phenyl]-5-oxo-N-[2-(2-phenylethyl)thiazol-5-yl]pyrrolidine-3-carboxamide]
5.97	O=C(NC1CC(=O)N(c2ccc(CN3CCCCC3)cc2)C1)c1cc(CCc2ccccc2)[nH]n1 (stereo not drawn) [Compound F204, 5-phenethyl-1H-pyrazole-3-carboxylic acid [5-oxo-1-(4-piperidin-1-ylmethyl-phenyl)-pyrrolidin-3-yl]-amide hydrochloride]
5.03	O=C(NC1CC(=O)N(c2ccc(CN3CCCCC3)cc2)C1)c1cnc(CCc2ccccc2)s1 (stereo not drawn) [Compound F206, N-[5-oxo-1-[4-(1-piperidylmethyl)phenyl]pyrrolidin-3-yl]-2-(2-phenylethyl)thiazole-5-carboxamide]
